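All cell lines were grown in 96-well plates and treated with compound for 48 hours. The concentration for 50% growth inhibition is given as GI50.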 The source made the active and inactive calls. Cut-off read from the data, not from the text of the source: active = GI50 up to about 1.1 µM and inactive = higher.
Legend:
Assay in all cases: growth of human tumour cells (NCI), 48 h
UACC-62 = tested on: UACC-62
SF-268 = tested on: SF-268
DU-145 = tested on: DU-145
786-0 = tested on: 786-0
COLO 205 = tested on: COLO 205
RXF 393 = tested on: RXF 393
UO-31 = tested on: UO-31
UACC-257 = tested on: UACC-257
MDA-MB-231 = tested on: MDA-MB-231
ACHN = tested on: ACHN
NCI-H460 = tested on: NCI-H460
BT-549 = tested on: BT-549
CAKI-1 = tested on: CAKI-1
HT-29 = tested on: HT-29
SK-MEL-5 = tested on: SK-MEL-5
K562 = tested on: K562
SNB-19 = tested on: SNB-19
MDA-N = tested on: MDA-N
A549 = tested on: A549
PC-3 = tested on: PC-3
SNB-75 = tested on: SNB-75
OVCAR-3 = tested on: OVCAR-3
T47D = tested on: T47D
NCI-H226 = tested on: NCI-H226
LOX IMVI = tested on: LOX IMVI
HCT-116 = tested on: HCT-116
SF-539 = tested on: SF-539
EKVX = tested on: EKVX
MCF7 = tested on: MCF7
HCC 2998 = tested on: HCC 2998
TK-10 = tested on: TK-10
NCI-H522 = tested on: NCI-H522
KM12 = tested on: KM12
RPMI-8226 = tested on: RPMI-8226
IGROV-1 = tested on: IGROV-1
OVCAR-4 = tested on: OVCAR-4
SR = tested on: SR
M14 = tested on: M14
U-251 = tested on: U-251
HOP-92 = tested on: HOP-92
CCRF-CEM = tested on: CCRF-CEM
OVCAR-8 = tested on: OVCAR-8
MDA-MB-435 = tested on: MDA-MB-435
SK-MEL-2 = tested on: SK-MEL-2
HL-60 = tested on: HL-60
NCI/ADR-RES = tested on: NCI/ADR-RES
MOLT-4 = tested on: MOLT-4
Malme-3M = tested on: Malme-3M
SW-620 = tested on: SW-620
SK-OV-3 = tested on: SK-OV-3
SN12C = tested on: SN12C
HCT-15 = tested on: HCT-15
Hs-578T = tested on: Hs-578T
SF-295 = tested on: SF-295
OVCAR-5 = tested on: OVCAR-5
NCI-H23 = tested on: NCI-H23
SK-MEL-28 = tested on: SK-MEL-28

O=C(CCCCCNC(=O)c1ccc(Cl)cc1)NO
GI50 (UACC-62): 3.03 µM (inactive)
GI50 (SF-268): 6.87 µM (inactive)
GI50 (DU-145): 4.17 µM (inactive)
GI50 (786-0): 7.03 µM (inactive)
GI50 (COLO 205): 2.99 µM (inactive)
GI50 (RXF 393): 3.66 µM (inactive)
GI50 (UO-31): 6.53 µM (inactive)
GI50 (UACC-257): 2.72 µM (inactive)
GI50 (MDA-MB-231): 3.61 µM (inactive)
GI50 (ACHN): 5.19 µM (inactive)
GI50 (NCI-H460): 4.07 µM (inactive)
GI50 (BT-549): 21.9 µM (inactive)
GI50 (CAKI-1): 4.05 µM (inactive)
GI50 (HT-29): 2.98 µM (inactive)
GI50 (SK-MEL-5): 3.24 µM (inactive)
GI50 (K562): 2.84 µM (inactive)
GI50 (SNB-19): 15 µM (inactive)
GI50 (MDA-N): 2.96 µM (inactive)
GI50 (A549): 8.24 µM (inactive)
GI50 (PC-3): 2.86 µM (inactive)
GI50 (SNB-75): 1.49 µM (inactive)
GI50 (OVCAR-3): 2.55 µM (inactive)
GI50 (T47D): 1.41 µM (inactive)
GI50 (NCI-H226): 15.8 µM (inactive)
GI50 (LOX IMVI): 4.76 µM (inactive)
GI50 (HCT-116): 2.56 µM (inactive)
GI50 (SF-539): 5.55 µM (inactive)
GI50 (EKVX): 8.97 µM (inactive)
GI50 (MCF7): 6.21 µM (inactive)
GI50 (HCC 2998): 4.5 µM (inactive)
GI50 (TK-10): 3.49 µM (inactive)
GI50 (NCI-H522): 2.19 µM (inactive)
GI50 (KM12): 6.59 µM (inactive)
GI50 (RPMI-8226): 3.09 µM (inactive)
GI50 (IGROV-1): 5.16 µM (inactive)
GI50 (OVCAR-4): 20.6 µM (inactive)
GI50 (SR): 2.54 µM (inactive)
GI50 (M14): 5.71 µM (inactive)
GI50 (U-251): 5.04 µM (inactive)
GI50 (HOP-92): 2.81 µM (inactive)
GI50 (CCRF-CEM): 2.42 µM (inactive)
GI50 (OVCAR-8): 3.41 µM (inactive)
GI50 (MDA-MB-435): 3.11 µM (inactive)
GI50 (SK-MEL-2): 2.33 µM (inactive)
GI50 (HL-60): 3.77 µM (inactive)
GI50 (NCI/ADR-RES): 1.15 µM (inactive)
GI50 (MOLT-4): 1.88 µM (inactive)
GI50 (Malme-3M): 2.61 µM (inactive)
GI50 (SW-620): 2.82 µM (inactive)
GI50 (SK-OV-3): 6.38 µM (inactive)
GI50 (SN12C): 5.51 µM (inactive)
GI50 (HCT-15): 15.3 µM
GI50 (Hs-578T): 8.99 µM (inactive)
GI50 (SF-295): 8.91 µM (inactive)
GI50 (OVCAR-5): 1.64 µM (inactive)
GI50 (NCI-H23): 5.97 µM (inactive)
GI50 (SK-MEL-28): 5.32 µM (inactive)

Reference: ChEMBL document CHEMBL1201862, “PubChem BioAssay data set” (2004)
